Measurements published in article PMC6364417, “Kinase inhibitor library screening identifies synergistic drug combinations effective in sensitive and resistant melanoma cells” (Journal of Experimental & Clinical Cancer Research : CR, 2019).

Columns and labels:
Test in all cases: Kinase inhibitor library screening, PrestoBlue cell viability, 1 or 10 μM, 72 h
IGR37 cells (parental) = test system: IGR37 cells (parental)
[1] = test system: 501Mel-XP cells (Vemurafenib-resistant)
[2] = test system: A375-XP cells (Vemurafenib-resistant)
[3] = test system: IGR37-GP cells (Dabrafenib-resistant)
[4] = test system: IGR37-XP cells (Vemurafenib-resistant)
[5] = test system: 501Mel-GP cells (Dabrafenib-resistant)
[6] = test system: A375-GP cells (Dabrafenib-resistant)
501Mel cells (parental) = test system: 501Mel cells (parental)
In short: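 Single-point screen at two doses over three days. Parental and BRAF-inhibitor-resistant sublines (XP: Vemurafenib; GP: Dabrafenib) were assessed by PrestoBlue viability, reported relative to untreated cells.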

A375 cells (parental) = test system: A375 cells (parental)
[7] = IGR37 Parental, 1μΜ, 72 h, in %
[8] = 501Mel Parental, 1μΜ, 72 h, in %
[9] = 501Mel Parental, 10μΜ, 72 h, in %

O=C(NC[C@H](O)CO)c1ccncc1Nc1ccc(I)cc1F [AS703026]
viability at 1 µM (IGR37 cells (parental); Homo sapiens, IGR-37, 72 h, read-out: cell viability, IGR37 Parental, 1μΜ): 33.3%
viability at 10 µM (IGR37 cells (parental); Homo sapiens, IGR-37, 72 h, read-out: cell viability, IGR37 Parental, 10μΜ): 35.4%
viability at 1 µM ([1]; Homo sapiens, 72 h, read-out: cell viability, 501Mel XP, 1μΜ): 79.8%
viability at 10 µM ([1]; Homo sapiens, 72 h, read-out: cell viability, 501Mel XP, 10μΜ): 56%
viability at 1 µM ([2]; Homo sapiens, A-375, 72 h, read-out: cell viability, A375 XP, 1μΜ): 15.5%
viability at 10 µM ([2]; Homo sapiens, A-375, 72 h, read-out: cell viability, A375 XP, 10μΜ): 9.6%
viability at 1 µM ([3]; Homo sapiens, IGR-37, 72 h, read-out: cell viability, IGR37 GP, 1μΜ): 77%
viability at 10 µM ([3]; Homo sapiens, IGR-37, 72 h, read-out: cell viability, IGR37 GP, 10μΜ): 59.4%
viability at 1 µM ([4]; Homo sapiens, IGR-37, 72 h, read-out: cell viability, IGR37 XP, 1μΜ): 52.7%
viability at 10 µM ([4]; Homo sapiens, IGR-37, 72 h, read-out: cell viability, IGR37 XP, 10μΜ): 18.8%
viability at 1 µM ([5]; Homo sapiens, 72 h, read-out: cell viability, 501Mel GP, 1μΜ): 95.8%
viability at 10 µM ([5]; Homo sapiens, 72 h, read-out: cell viability, 501Mel GP, 10μΜ): 78.7%
viability at 1 µM ([6]; Homo sapiens, A-375, 72 h, read-out: cell viability, A375 GP, 1μΜ): 18.8%
viability at 10 µM ([6]; Homo sapiens, A-375, 72 h, read-out: cell viability, A375 GP, 10μΜ): 15.8%
viability at 1 µM (501Mel cells (parental); Homo sapiens, 72 h, read-out: cell viability, 501Mel Parental, 1μΜ): 50.1%
viability at 10 µM (501Mel cells (parental); Homo sapiens, 72 h, read-out: cell viability, 501Mel Parental, 10μΜ): 57.6%
viability at 1 µM (A375 cells (parental); Homo sapiens, A-375, 72 h, read-out: cell viability, A375 Parental, 1μΜ): 18.5%
viability at 10 µM (A375 cells (parental); Homo sapiens, A-375, 72 h, read-out: cell viability, A375 Parental, 10μΜ): 19.6%

COc1cc(Nc2ncc(F)c(Nc3ccc4c(n3)NC(=O)C(C)(C)O4)n2)cc(OC)c1OC [R406(free base)]
cell viability (kinase inhibitor library screening) (IGR37 cells (parental); IGR37 Parental, 1μΜ, in %): 97.4
cell viability (kinase inhibitor library screening) (IGR37 cells (parental); IGR37 Parental, 10μΜ, in %): 86.8
cell viability (kinase inhibitor library screening) ([1]; 501Mel XP, 1μΜ, in %): 77.6
cell viability (kinase inhibitor library screening) ([1]; 501Mel XP, 10μΜ, in %): 29.6
cell viability (kinase inhibitor library screening) ([2]; A375 XP, 1μΜ, in %): 103.9
cell viability (kinase inhibitor library screening) ([2]; A375 XP, 10μΜ, in %): 63.6
cell viability (kinase inhibitor library screening) ([3]; IGR37 GP, 1μΜ, in %): 84.7
cell viability (kinase inhibitor library screening) ([3]; IGR37 GP, 10μΜ, in %): 45.4
cell viability (kinase inhibitor library screening) ([4]; IGR37 XP, 1μΜ, in %): 92.0
cell viability (kinase inhibitor library screening) ([4]; IGR37 XP, 10μΜ, in %): 20.0
cell viability (kinase inhibitor library screening) ([5]; 501Mel GP, 1μΜ, in %): 93.8
cell viability (kinase inhibitor library screening) ([5]; 501Mel GP, 10μΜ, in %): 48.0
cell viability (kinase inhibitor library screening) ([6]; A375 GP, 10μΜ, in %): 44.5
cell viability (kinase inhibitor library screening) (501Mel cells (parental); 501Mel Parental, 10μΜ, in %): 57.6
cell viability (kinase inhibitor library screening) (A375 cells (parental); A375 Parental, 1μΜ, in %): 100.1
cell viability (kinase inhibitor library screening) (A375 cells (parental); A375 Parental, 10μΜ, in %): 50.6

O=C1NC(=O)C(c2ccccc2[N+](=O)[O-])=C1Nc1ccc(O)c(Cl)c1 [SB 415286]
cell viability, IGR37 Parental, 1μΜ (IGR37 cells (parental); [7]): 102.6
cell viability, 501Mel XP, 1μΜ ([1]; 501Mel XP, 1μΜ, 72 h, in %): 92.5
cell viability, 501Mel XP, 10μΜ ([1]; 501Mel XP, 10μΜ, 72 h, in %): 76.3
cell viability, A375 XP, 1μΜ ([2]; A375 XP, 1μΜ, 72 h, in %): 100.0
cell viability, A375 XP, 10μΜ ([2]; A375 XP, 10μΜ, 72 h, in %): 92.8
cell viability, IGR37 GP, 10μΜ ([3]; IGR37 GP, 10μΜ, 72 h): 93.7%
cell viability, IGR37 GP, 1μΜ ([3]; IGR37 GP, 1μΜ, 72 h, in %): 94.9
cell viability, IGR37 XP, 10μΜ ([4]; IGR37 XP, 10μΜ, 72 h): 85.4%
cell viability, IGR37 XP, 1μΜ ([4]; IGR37 XP, 1μΜ, 72 h, in %): 98.9
cell viability, 501Mel GP, 1μΜ ([5]; 501Mel GP, 1μΜ, 72 h, in %): 100.2
cell viability, 501Mel GP, 10μΜ ([5]; 501Mel GP, 10μΜ, 72 h, in %): 76.0
cell viability, A375 GP, 1μΜ ([6]; A375 GP, 1μΜ, 72 h, in %): 95.9
cell viability, A375 GP, 10μΜ ([6]; A375 GP, 10μΜ, 72 h, in %): 86.4
cell viability, 501Mel Parental, 1μΜ (501Mel cells (parental); [8]): 94.3
cell viability, 501Mel Parental, 10μΜ (501Mel cells (parental); [9]): 76.0
cell viability, A375 Parental, 1μΜ (A375 cells (parental); A375 Parental, 1μΜ, 72 h, in %): 99.8
cell viability, A375 Parental, 10μΜ (A375 cells (parental); A375 Parental, 10μΜ, 72 h, in %): 78.1

Nc1ccc(-c2ccc3ncc4ccc(=O)n(-c5cccc(C(F)(F)F)c5)c4c3c2)cn1 [Torin 2]
Cell viability in kinase inhibitor library screening, IGR37 Parental, 1μΜ (IGR37 cells (parental); [7]): 13.2
Cell viability in kinase inhibitor library screening, IGR37 Parental, 10μΜ (IGR37 cells (parental); IGR37 Parental, 10μΜ, 72 h, in %): 0.851
Cell viability in kinase inhibitor library screening, 501Mel XP, 1μΜ ([1]; 501Mel XP, 1μΜ, 72 h, in %): 3.5
Cell viability in kinase inhibitor library screening, 501Mel XP, 10μΜ ([1]; 501Mel XP, 10μΜ, 72 h, in %): 0.164
Cell viability in kinase inhibitor library screening, A375 XP, 1μΜ ([2]; A375 XP, 1μΜ, 72 h): 12.1
Cell viability in kinase inhibitor library screening, A375 XP, 10μΜ ([2]; A375 XP, 10μΜ, 72 h): 2.9
Cell viability in kinase inhibitor library screening, IGR37 GP, 10μΜ ([3]; IGR37 GP, 10μΜ, 72 h): 2.7%
Cell viability in kinase inhibitor library screening, IGR37 GP, 1μΜ ([3]; IGR37 GP, 1μΜ, 72 h, in %): 20.7
Cell viability in kinase inhibitor library screening, IGR37 XP, 10μΜ ([4]; IGR37 XP, 10μΜ, 72 h): 1.3%
Cell viability in kinase inhibitor library screening, IGR37 XP, 1μΜ ([4]; IGR37 XP, 1μΜ, 72 h, in %): 14.1
Cell viability in kinase inhibitor library screening, 501Mel GP, 1μΜ ([5]; 501Mel GP, 1μΜ, 72 h, in %): 10.9
Cell viability in kinase inhibitor library screening, 501Mel GP, 10μΜ ([5]; 501Mel GP, 10μΜ, 72 h, in %): 0.7
Cell viability in kinase inhibitor library screening, A375 GP, 1μΜ ([6]; A375 GP, 1μΜ, 72 h): 7.9
Cell viability in kinase inhibitor library screening, A375 GP, 10μΜ ([6]; A375 GP, 10μΜ, 72 h): 4.0
Cell viability in kinase inhibitor library screening, 501Mel Parental, 1μΜ (501Mel cells (parental); [8]): 5.6
Cell viability in kinase inhibitor library screening, 501Mel Parental, 10μΜ (501Mel cells (parental); [9]): 0.8
Cell viability in kinase inhibitor library screening, A375 Parental, 10μΜ (A375 cells (parental); A375 Parental, 10μΜ, 72 h): 3.6
Cell viability in kinase inhibitor library screening, A375 Parental, 1μΜ (A375 cells (parental); A375 Parental, 1μΜ, 72 h): 10.7
